The record followed here is ChEMBL document CHEMBL4680274, “Modulating microRNA Processing: Enoxacin, the Progenitor of a New Class of Drugs” (J Med Chem, 2020).

Data set [1] in a line: Cytotoxicity against human neural progenitor cell by CellTiter-Glo Luminescent Cell Viability Assay. Format: tissue-based. As to conditions: neural progenitor cells.
In a further data set the test system is LNCaP. The data set is described as follows: Growth inhibition of human LNCaP cells incubated for 72 hrs by MTT assay. The format is functional, cell-based. For orientation: Tetrazolium assays rely on reduction of a dye to a coloured formazan, in cell work by metabolically active cells.
The next data set has as its system Zika virus. The data set is described as follows: Antiviral activity against ZIKV infected in human neural progenitor cells incubated with cells for 24 hrs prior to viral infection followed by replacement of fresh medium containing compound and measured at 48 hrs post infection by RT-PCR method. As to conditions: Neural Progenitor Cell.
The subject of the next data set is HCT-116. As to the kind of experiment: Anticancer activity against human HCT116 cells incubated for 5 days by MTT assay. The format is functional, cell-based. As to conditions: HCT-116, 120 h.
Another data set deals with DU-145. As to the kind of experiment: Growth inhibition of human DU145 cells incubated for 72 hrs by MTT assay. Format: functional, cell-based. As to conditions: DU-145, 72 h.

One may read the CC50 as the concentration that lowers cell viability or growth by half. A higher CC50 goes with lower toxicity to the cells. The term EC50 denotes the midpoint of the concentration-response curve. Read a low EC50 as a more potent agent. As a reminder, the IC50 is the concentration that inhibits the measured activity by half. A lower IC50 goes with inhibition by little substance. In data set [1], `CCn1cc(C(=O)O)c(=O)c2cc(F)c(N3CCNCC3)nc21` [ENOXACIN] registered a CC50 of 176 µM. The EC50 in the data set with LNCaP was determined as 105 µM; in the data set on HCT-116, 124 µM; in the data set with DU-145, 141 µM. Further, in the data set with Zika virus, the IC50 turned out to be 52 µM.
